What all share (assay): NCI tumour cell line growth inhibition, 48 h
Assay [1] concerns SF-268 CNS.
Assay [2] relates to SNB-75 CNS.
The subject of assay [3] is OVCAR-8 ovarian.
In assay [4] the test system is OVCAR-4 ovarian.
For assay [5], the system named is K-562 leukemia.
Assay [6] has as its system SK-MEL-28 melanoma.
Assay [7] relates to NCI-H226 lung.
Assay [8] has as its system SW-620 colon.
Assay [9] concerns T-47D breast.
Assay [10] concerns MDA-MB-231 breast.

This passage reports TGI and GI50 results from PubChem BioAssay (NCI).

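A five-concentration, 48-hour dose response in 96-well plates underlies each endpoint, interpolated linearly between surrounding concentrations. At the GI50, growth is halved. At the TGI there is no net growth.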 A value given as a limit tells only on which side of the number the result lay.

Regarding `O=C(O)C(CS)NCc1c2ccccc2nc2ccccc12` (centres undefined), the TGI in assay [1] was > 100 µM; in assay [2] it was > 100 µM; in assay [3], > 100 µM; in assay [4], 37.6 µM; in assay [5], > 100 µM; in assay [6], > 100 µM. Also, the TGI in [7] and in assay [8] was > 100 µM in each case.
Take `COc1ccc(COC2CC(OC)OC(C)C2OC(=O)c2ccccc2)cc1` (centres undefined): the TGI in [1], in [2], in [3], in assay [4], in assay [5] and in assay [6] was > 100 µM in each case. The TGI in assay [7] was 65.9 µM; in [8], > 100 µM.
Consider `O=C1/C(=N\O)S(=O)(=O)c2ccccc21`, for which the TGI in assay [1], in assay [2], in assay [3], in assay [4], in assay [5] and in assay [7] was > 100 µM throughout. Further, the TGI in assay [8] is > 100 µM.
For the compound `CC(=O)[CH-]C(=O)c1ccccc1.CC(=O)[CH-]C(=O)c1ccccc1.CC(=O)[CH-]C(=O)c1ccccc1.[In+3]`, the GI50 in assay [1] is 19.9 µM; in assay [2], 19.8 µM; in [3], 24.9 µM; in [4], 78.8 µM; in assay [5] it was 31 µM; in [6], 34.2 µM. Further, the results for the GI50 in assay [7] and in assay [8] were 24.7 µM and 53.1 µM, respectively. Besides, the TGI in assay [1], in assay [2], in assay [3], in assay [4], in assay [5] and in assay [6] was > 100 µM throughout. Further, the TGI in assay [7] was 84.3 µM; in [8], > 100 µM.
In the case of `C[C@]12CCC(=O)CC1CCCC2=O` (some centres undefined), the TGI in assay [1], in assay [2], in assay [3], in assay [4], in assay [5] and in assay [6] was > 100 µM throughout. The TGI in [8] is > 100 µM.
`COc1ccc(C(=O)/C=C/c2cccc(Nc3ccnc4cc(Cl)ccc34)c2)cc1`: the GI50 is 1.51 µM in [2]; 0.655 µM in [9]; 1.64 µM in assay [5]; 1.78 µM in assay [7]; 1.98 µM in assay [8]. Also, the TGI was 4.12 µM in [2]; 4.64 µM in assay [9]; 18.1 µM in assay [5]; > 100 µM in assay [7]; 20 µM in assay [8].
On to `O=C(NC(=Nc1ccccc1)SCCSC(=Nc1ccccc1)NC(=O)c1cccs1)c1cccs1`, for which the TGI in assay [2] was 99.8 µM; in assay [3], > 100 µM; in [4], > 100 µM; in assay [5] it was > 100 µM; in [6], > 100 µM; in assay [7], > 100 µM. Moreover, the TGI in assay [8] was > 100 µM.
Take `CC1(C)CC2CC(CC(C)(C)C2=O)C1=O`: the TGI in [1], in assay [2], in assay [3], in assay [4], in [5] and in assay [6] was > 100 µM in each case. Besides, in [8], the TGI was > 100 µM.
Regarding `COc1cccc(NC(=O)CC(=O)N2N=C(N3c4ccccc4Sc4ccccc43)CC2c2ccccc2)c1` (centres undefined), the TGI in assay [1], in assay [2], in assay [3], in assay [4], in [6] and in [7] was > 100 µM throughout. The TGI in assay [8] was > 100 µM.
`COc1cc([N+](=O)[O-])c(OC)cc1-c1nc2sccn2c1/C=N/N=C(N)N`: the GI50 in assay [1] is 4.86 µM; in [9] it was 22.2 µM; in [3] it was 17.3 µM; in [4], 52.2 µM; in assay [10], 24.2 µM; in assay [5] it was 1.03 µM. Besides, the values for the GI50 in assay [6] and in assay [8] were 27.9 µM and 15 µM, respectively. Further, the TGI was 35.3 µM in [1]; > 100 µM in [9]; 59.8 µM in assay [3]; > 100 µM in [4]; 69.5 µM in [10]; > 100 µM in [5]. Besides, the values for the TGI in [6] and in assay [8] were 63.4 µM and > 100 µM, respectively.
As to `CCOC(=O)/C(O)=C(/C(=O)OC)c1ccc(Cl)cc1`, the TGI in assay [1], in assay [2], in assay [3], in assay [4], in [5] and in assay [6] was > 100 µM throughout. In assay [8], the TGI was > 100 µM.
Regarding `O=[N+]([O-])c1ccc(N=Nc2ccc(O)c3ccccc23)cc1`, the GI50 in assay [1] was 2.9 µM; in assay [2], 2.45 µM; in [3] it was 3.1 µM; in assay [4], 2.83 µM; in [10], 1.43 µM; in assay [5] it was 3.13 µM. The GI50 is 6.59 µM in [6], 26.3 µM in [7] and 3.33 µM in assay [8]. Further, the TGI in assay [1] is > 100 µM; in assay [2], > 100 µM; in assay [3] it was > 100 µM; in assay [4], > 100 µM; in assay [10] it was 20.8 µM; in assay [5], > 100 µM. In addition, the TGI in assay [6], in assay [7] and in assay [8] was > 100 µM in each case.
Take `CN(C)C(=O)c1ccc([N+](=O)[O-])cc1`: the TGI in assay [1], in assay [2], in assay [3], in [4], in assay [5] and in assay [6] was > 100 µM in each case. Moreover, the TGI in assay [7] and in assay [8] was > 100 µM each time.
As for `Cn1cc(-c2csc(-c3cn(CCCN4CCCCC4)c4ccccc34)n2)c2cccnc21`, the GI50 in assay [1] was 1.72 µM; in assay [9], 17.4 µM; in assay [4], 2.02 µM; in assay [10] it was 1.77 µM; in [6] it was 1.7 µM; in assay [7], 2.55 µM. The GI50 in assay [8] is 1.95 µM. Besides, the TGI in assay [1] was found to be 3.41 µM; in assay [9] it was 51.3 µM; in assay [4] it was 4.07 µM; in [10], 3.32 µM; in assay [6], 3.19 µM; in assay [7], 7.62 µM. In addition, the TGI in [8] was 3.74 µM.
As for `CCOC(=O)C1CCCCN1C(=O)c1ccc(Nc2cnc3cc(C(F)(F)F)ccc3n2)cc1` (centres undefined), the GI50 in assay [1] is 13.2 µM; in [9], 6.91 µM; in assay [3] it was 33.2 µM; in [10], 2.86 µM; in [5] it was 15.1 µM; in [7], 24.5 µM. Further, the GI50 in [8] is 17.8 µM. In addition, the TGI in assay [1] was 32.7 µM; in assay [9] it was > 100 µM; in assay [3], > 100 µM; in [10], 5.66 µM; in assay [5] it was > 100 µM; in assay [7] it was 45.6 µM. The same compound returned a TGI in [8] of 38.5 µM.
As to `Cc1ccc(-c2csc(NC(=O)N3CCN(c4cc5c(cc4F)c(=O)c(C(=O)O)cn5C4CC4)CC3)n2)cc1`, the GI50 in [1] is 0.371 µM; in assay [2], 0.289 µM; in assay [3], 0.421 µM; in assay [4] it was 2.64 µM; in assay [10], 1.78 µM; in [5], 0.881 µM. For the same compound, the GI50 is 0.494 µM in assay [6], 1.44 µM in assay [7] and 1.9 µM in assay [8]. Moreover, the TGI in assay [1] was > 100 µM; in [2], 9.55 µM; in assay [3], 7.74 µM; in [4], > 100 µM; in [10], 19.4 µM; in assay [5], > 100 µM. Further, the values for the TGI in [6], in [7] and in assay [8] were > 100 µM, 8.85 µM and > 100 µM, respectively.
Regarding `O=S(=O)(c1cccc2c(I)cccc12)N1CCCNCC1`, the GI50 in [1] was 26.6 µM; in assay [9], 25.4 µM; in assay [3], 24.4 µM; in [4] it was 18.6 µM; in [10], 19.5 µM; in assay [5], 10.9 µM. In addition, the GI50 in assay [6] was 21.6 µM; in assay [7], 17.8 µM; in assay [8], 17.1 µM. The TGI in assay [1] is > 100 µM; in assay [9], 64.9 µM; in assay [3] it was 51.9 µM; in assay [4], 38.4 µM; in [10] it was 36.7 µM; in assay [5] it was 30.4 µM. Further, the TGI in assay [6] amounted to 44.2 µM; in assay [7], 34.8 µM; in assay [8], 51.4 µM.
Consider `CCSc1nc(SCC)c2c(-c3ccc(OC)c(OC)c3)c(C#N)c(SCC)nc2n1`, for which the GI50 is 14.2 µM in assay [1]; 43.8 µM in assay [3]; 31.8 µM in assay [4]; 13 µM in [10]; 85.1 µM in [5]; 41.8 µM in [6]. Moreover, the GI50 in assay [7] was 20.5 µM; in [8], 61.1 µM. Besides, the TGI was 77.4 µM in assay [1]; > 100 µM in assay [3]; > 100 µM in assay [4]; 42 µM in [10]; > 100 µM in assay [5]; > 100 µM in assay [6]. Further, the TGI in [7] is 54.6 µM; in assay [8], > 100 µM.
As for `COc1cnc2c(c1)C(=O)c1c-2n(CCCNC2=NCCS2)c(=O)c2cc(Cl)ccc12`, the GI50 in [1] was 0.088 µM; in assay [2], 1.23 µM; in assay [4] it was 1.42 µM; in assay [10], 1.52 µM; in [7] it was 0.687 µM; in assay [8], 0.146 µM. The TGI is 2.06 µM in [1]; 2.51 µM in [2]; 2.95 µM in assay [4]; 3.07 µM in [10]; 2.29 µM in assay [7]; 2.08 µM in assay [8].
On to `CNC(=O)OCc1c2ccncc2c(C)c2c1[nH]c1ccc(OC)cc12`, for which the TGI in [1] is 0.79 µM; in [3] it was > 100 µM; in assay [4] it was 1.13 µM; in [5], 2.48 µM; in assay [6], 2.04 µM; in [7] it was 0.784 µM. In assay [8], the TGI is > 100 µM.
On to `CCCN(CCC)C(=O)C(=O)c1c(N)[nH]n(-c2ccccc2)c1=O`, for which the TGI in assay [1], in assay [3], in [4], in assay [5], in [7] and in assay [8] was > 100 µM each time.
In the case of `O=C(N/C(=C\c1ccc(/C=C(\NC(=O)c2ccccc2)c2nc3ccccc3[nH]2)cc1)c1nc2ccccc2[nH]1)c1ccccc1`, the TGI in [1], in assay [2], in assay [3], in assay [4], in assay [5] and in [6] was > 100 µM each time. The TGI in assay [8] is > 100 µM.
Consider `O=C(O)c1nc(-c2ccc(Cl)c(Cl)c2)nc2ccc(Cl)cc12`, for which the TGI in assay [1] was > 100 µM; in [2], 35.4 µM; in [3] it was > 100 µM; in assay [5] it was > 10 µM; in assay [6], > 100 µM; in assay [8], > 100 µM.
Consider `CN(C)C(=O)c1cnc2oc3ccc(O)cc3c2c1-c1ccccc1`, for which the GI50 was 20.2 µM in assay [1]; 11.7 µM in assay [2]; > 25 µM in [3]; > 25 µM in assay [5]; 5.12 µM in [6]; > 25 µM in [8]. In addition, the TGI in [1], in [2], in [3], in assay [5], in [6] and in assay [8] was > 25 µM throughout.
In the case of `C[C@]12CC[C@@H]3c4ccc(O)cc4CC[C@H]3[C@@H]1Cc1cnc(N)nc12`, the GI50 in assay [1] was 13.5 µM; in assay [2], 16.5 µM; in [3], 92.9 µM; in assay [4], 32.2 µM; in assay [10], 13.7 µM; in assay [5] it was 7.97 µM. Moreover, the values for the GI50 in [6], in assay [7] and in [8] were 10.7 µM, 15.2 µM and 22.4 µM, respectively. Also, the TGI is 38.8 µM in assay [1]; 42.9 µM in [2]; > 100 µM in assay [3]; > 100 µM in [4]; 32.8 µM in assay [10]; 42.6 µM in assay [5]. The TGI was 26.1 µM in assay [6], 33.8 µM in [7] and 45.9 µM in [8].
